Laboratory results taken from paper PMC3431023 (Journal of medicinal chemistry, 2012).

Columns and labels:
nAChR [1] = format: in vivo; conditions: mouse, s.c., 30 min
nAChR [2] = format: in vivo; conditions: mouse, s.c.
nAChR [3] = test: Antagonism of nicotine-induced antinociception, hot-plate test; format: in vivo; conditions: mouse
α4β2 = conditions: read-out: Antagonist Activity IC50 α4β2; cited from earlier work
α4β2-nAChR [4] = target: T1, α4β2-nAChR (Rattus norvegicus, UniProt P09483+P12390); format: cell-based
Target sequence in this assay (P09483 31-630): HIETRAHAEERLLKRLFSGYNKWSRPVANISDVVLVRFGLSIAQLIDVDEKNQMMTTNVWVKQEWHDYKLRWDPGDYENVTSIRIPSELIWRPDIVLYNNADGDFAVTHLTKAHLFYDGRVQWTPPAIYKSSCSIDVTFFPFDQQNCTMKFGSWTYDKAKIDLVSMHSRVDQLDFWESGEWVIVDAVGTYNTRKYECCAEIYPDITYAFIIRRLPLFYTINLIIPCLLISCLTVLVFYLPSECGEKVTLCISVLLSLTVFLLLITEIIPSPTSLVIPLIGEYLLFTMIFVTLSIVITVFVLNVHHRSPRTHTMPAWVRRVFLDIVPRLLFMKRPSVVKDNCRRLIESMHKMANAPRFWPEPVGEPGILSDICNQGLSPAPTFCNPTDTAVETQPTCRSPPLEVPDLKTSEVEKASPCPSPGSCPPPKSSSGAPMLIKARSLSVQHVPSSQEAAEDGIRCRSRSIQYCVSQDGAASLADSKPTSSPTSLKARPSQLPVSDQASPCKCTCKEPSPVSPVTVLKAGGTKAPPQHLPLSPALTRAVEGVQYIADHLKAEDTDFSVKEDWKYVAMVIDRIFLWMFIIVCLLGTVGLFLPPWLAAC
Target sequence in this assay (P12390 25-500): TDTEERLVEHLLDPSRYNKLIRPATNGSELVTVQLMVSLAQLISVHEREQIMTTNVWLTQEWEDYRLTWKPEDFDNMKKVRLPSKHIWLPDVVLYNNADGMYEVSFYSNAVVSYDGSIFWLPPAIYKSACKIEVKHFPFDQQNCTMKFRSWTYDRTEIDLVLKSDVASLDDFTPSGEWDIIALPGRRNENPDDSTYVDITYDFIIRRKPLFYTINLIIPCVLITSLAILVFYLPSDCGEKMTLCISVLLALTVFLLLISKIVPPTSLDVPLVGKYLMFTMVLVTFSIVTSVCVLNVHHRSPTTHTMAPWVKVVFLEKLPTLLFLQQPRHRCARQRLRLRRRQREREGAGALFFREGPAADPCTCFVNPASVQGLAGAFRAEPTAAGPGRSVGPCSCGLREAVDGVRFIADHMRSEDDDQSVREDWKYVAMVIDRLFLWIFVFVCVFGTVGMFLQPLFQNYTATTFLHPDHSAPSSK

α3β4-nAChR = α3β4-nAChR (Rattus norvegicus, UniProt P04757+P12392); format: cell-based; conditions: 100 µM compound, rat α3β4 in Xenopus oocytes
α3β4-nAChR, sequence (P04757 26-499): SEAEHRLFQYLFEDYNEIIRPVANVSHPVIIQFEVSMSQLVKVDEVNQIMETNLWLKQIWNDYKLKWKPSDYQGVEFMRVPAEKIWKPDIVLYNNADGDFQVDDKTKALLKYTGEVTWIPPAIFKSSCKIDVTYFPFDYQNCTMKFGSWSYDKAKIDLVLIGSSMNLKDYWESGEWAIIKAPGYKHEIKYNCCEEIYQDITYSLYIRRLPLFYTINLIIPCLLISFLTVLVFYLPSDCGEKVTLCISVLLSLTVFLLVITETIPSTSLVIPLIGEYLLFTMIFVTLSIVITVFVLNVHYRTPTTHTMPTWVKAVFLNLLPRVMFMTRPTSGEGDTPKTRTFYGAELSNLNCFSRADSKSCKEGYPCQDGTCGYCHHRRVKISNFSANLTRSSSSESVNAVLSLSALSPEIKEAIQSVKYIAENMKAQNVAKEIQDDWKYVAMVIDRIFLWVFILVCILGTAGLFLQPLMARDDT
α3β4-nAChR, sequence (P12392 21-495): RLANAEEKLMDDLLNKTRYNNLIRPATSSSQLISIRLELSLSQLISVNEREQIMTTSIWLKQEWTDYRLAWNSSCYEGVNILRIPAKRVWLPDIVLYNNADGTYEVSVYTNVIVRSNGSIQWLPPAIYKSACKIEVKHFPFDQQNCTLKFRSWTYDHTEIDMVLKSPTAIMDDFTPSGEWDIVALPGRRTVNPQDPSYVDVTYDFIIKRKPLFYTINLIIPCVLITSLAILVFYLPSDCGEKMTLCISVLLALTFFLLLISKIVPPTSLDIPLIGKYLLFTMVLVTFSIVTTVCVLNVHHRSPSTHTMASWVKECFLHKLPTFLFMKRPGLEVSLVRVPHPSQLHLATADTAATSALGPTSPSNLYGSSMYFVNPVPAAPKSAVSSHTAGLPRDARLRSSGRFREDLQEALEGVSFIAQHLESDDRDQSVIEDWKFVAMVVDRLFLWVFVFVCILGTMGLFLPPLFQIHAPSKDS

α4β2-nAChR [5] = target: T1, α4β2-nAChR; format: binding; conditions: Ki ratio
Target sequence in this assay (P12390 25-500): as the sequence (P12390 25-500) above
Target sequence in this assay (P09483 31-630): as the sequence (P09483 31-630) above

nAChR [6] = format: in vivo; conditions: mouse, s.c., tested 5 min after injection
human α4β2-nAChRs = conditions: competitive antagonist of human α4β2-nAChRs; cited from earlier work
[7] = tested on: nicotine self-administration; conditions: rodents; cited from earlier work
nAChR [8] = format: in vivo; conditions: mouse, s.c., tested 5 min after injection; (confidence limits)
CPP produced by nicotine = conditions: rodents; cited from earlier work
[9] = tested on: nicotine's ability to facilitate ICSS; conditions: rodents; cited from earlier work
[10] = tested on: discriminative stimulus effects of nicotine; conditions: rodents; cited from earlier work

CS(=O)(=O)c1ccc(-c2cc(C3CC4CCC3N4)cnc2F)cc1 (stereo not drawn) [Compound 5d, 2'-Fluoro-3'-(4-methanesulfonylphenyl)deschloroepibatidine]
ED50 Hypothermia (nAChR [1]): no activity
ED50 Spontaneous Activity (nAChR [2]): no activity
AD50 Hot-Plate (nAChR [3]): antagonists in the hot-plate test

c1cnc2cc3c(cc2n1)[C@@H]1CNC[C@H]3C1 [varenicline]
IC50 (α4β2): 200 ± 30 nM

Fc1ncc(C2CC3CCC2N3)cc1-c1ccc(C(F)(F)F)cc1 (stereo not drawn) [Compound 5b, 2'-Fluoro-3'-(4'-trifluoromethylphenyl)deschloroepibatidine]
selectivity for α4β2- over α3β4-nAChR (antagonist potency) (α4β2-nAChR [4]; electrophysiology, IC50 ratio): no selectivity
selectivity for α4β2- over α7-nAChR (antagonist potency) (α4β2-nAChR [4]; electrophysiology, IC50 ratio): no selectivity
Agonist Activity (% of max ACh at 100 µM of Compd) α3β4 (α3β4-nAChR): lacked agonist activity
ED50 Hypothermia (nAChR [1]): no activity
ED50 Spontaneous Activity (nAChR [2]): no activity
AD50 Hot-Plate (nAChR [3]): antagonists in the hot-plate test

N#Cc1ccc(-c2cc(C3CC4CCC3N4)cnc2F)cc1 (stereo not drawn) [Compound 5c, 2'-Fluoro-3'-(4-cyanophenyl)deschloroepibatidine]
Agonist Activity (% of max ACh at 100 µM of Compd) α3β4 (α3β4-nAChR): low level of agonist activity
ED50 Hypothermia (nAChR [1]): no activity
ED50 Spontaneous Activity (nAChR [2]): no activity

NS(=O)(=O)c1ccc(-c2cc(C3CC4CCC3N4)cnc2F)cc1 (stereo not drawn) [Compound 5e, 2'-Fluoro-3'-(4-aminosulfonylphenyl)deschloroepibatidine]
ED50 Hypothermia (nAChR [1]): no activity
ED50 Spontaneous Activity (nAChR [2]): no activity

O=S(=O)(c1ccc(-c2cc(C3CC4CCC3N4)cnc2F)cc1)C(F)(F)F (stereo not drawn) [Compound 5f, 2'-Fluoro-3'-(4-trifluoromethanesulfonylphenyl)deschloroepibatidine]
Agonist Activity (% of max ACh at 100 µM of Compd) α3β4 (α3β4-nAChR): low level of agonist activity
ED50 Spontaneous Activity (nAChR [2]): only active in the spontaneous activity test

NC(=O)c1ccc(-c2cc(C3CC4CCC3N4)cnc2F)cc1 (stereo not drawn) [Compound 5g, 2'-Fluoro-3'-(4-carbamoylphenyl)deschloroepibatidine]
selectivity for α4β2 over α7 in radioligand binding assays (α4β2-nAChR [5]): > 15,000 fold
Agonist Activity (% of max ACh at 100 µM of Compd) α4β2 (α4β2-nAChR [4]; 100 µM compound, rat α4β2 in Xenopus oocytes): low level of agonist activity
Agonist Activity (% of max ACh at 100 µM of Compd) α3β4 (α3β4-nAChR): low level of agonist activity
ED50 Hypothermia (nAChR [1]): only active in the hypothermia and spontaneous activity tests
ED50 Spontaneous Activity (nAChR [2]): only active in the hypothermia and spontaneous activity tests

O=[N+]([O-])c1ccc(-c2cc(C3CC4CCC3N4)cnc2F)cc1 (stereo not drawn) [Compound 5a, 2'-fluoro-3'-(4-nitrophenyl)deschloroepibatidine]
ED50 Hot-Plate (nAChR [6]): no functional activity
potency higher than that of dihydro-β-erythroidine (6) (human α4β2-nAChRs): 17 fold
effect on i.v. nicotine self-administration [7]: dose-dependently blocked
ED50 Tail-Flick (nAChR [8]): no functional activity
effect on CPP produced by nicotine (CPP produced by nicotine): blocked
Agonist Activity (% of max ACh at 100 µM of Compd) α3β4 (α3β4-nAChR): low level of agonist activity
effect on nicotine's ability to facilitate ICSS [9]: reduced
effect on discriminative stimulus effects of nicotine [10]: attenuated
